Data on 4 molecules can be found in paper PMC5428354, “Screening of a natural compound library identifies emodin, a natural compound from Rheum palmatum Linn that inhibits DPP4” (PeerJ, 2017).

The Ki is the equilibrium dissociation constant of an inhibitor or competing ligand from its target. Read a low Ki as higher affinity. In general, IC50 refers to the concentration needed to halve the response being measured.

Holding throughout (assay type): biochemical
In test [1] the target is DPP8 (Homo sapiens, UniProt Q6V1X1). Description: DPP8 activity assay (BPS Bioscience kit).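 For DPP8 assay, Emission (450 nm): fluorescence read with excitation at 365 nm.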 The settings on record: for DPP8 assay, Emission (450 nm) / DPP8 activity: 100 µM, Exp #1-#5; for DPP8 activity: DMSO = Ctrl. As for the experimental part: A DPP8 assay kit was purchased from BPS Bioscience (Cat# 800208), and the assay protocol was followed to test for inhibitory activity on DPP8. Briefly, DPP substrate 1 was diluted to make a 100 µM stock solution, and DPP8 protein was diluted in DPP assay buffer to 2 ng/µl (20 ng/reaction). For the tested compounds, 10 µl of diluted DPP8 protein, 5 µl of diluted DPP substrate 1, 84 µl of DPP assay buffer and 1 µl of inhibitor were addedinto the assay system for a total volume of 100 µl. The reaction mixtures were prepared in duplicate on a 96-well plate and incubated at room temperature for 10 min. […]

Test [2] addresses T1, DPP9 (Homo sapiens, UniProt Q86TI2).
T1 construct: purchased BPS Bioscience 800209
Description: DPP9 activity assay (BPS Bioscience kit).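 For DPP9 assay, Emission (450 nm): 20 ng DPP9 per 100 µl reaction with DPP substrate 1.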 Conditions: 100 µM, Well #1-#3; for DPP9 activity: DMSO = Ctrl.

Test [3] has as its target DPP4 (Homo sapiens, UniProt P27487). Description: DPP4 activity assay (DPP4 inhibitor screening assay kit, Cayman).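 For all read-outs here: fluorescence read at excitation 360 nm and emission 460 nm after the enzyme reaction ran 30 min at 37 °C in a 96-well plate.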 Also noted: purchased Cayman Chemical, Ann Arbor, MI, USA. The settings on record: for Ki: DPP4; for Ki / IC50: means ± SE; for IC50: in vitro, read-out: IC50 of DPP4 Inhibition; for remaining activity at 10 µM: 0.5 h, control mean 100.0.
[4] abbreviates: Figure 1A raw data, read-out: DPP4 activity in library screen, Exp 1.
[5] abbreviates: Figure 1A raw data, read-out: DPP4 activity in library screen, Exp 2.
Where [6] appears, read: Figure 1A raw data, read-out: DPP4 activity in library screen, Exp 3.
The mark [7] stands for this setting: mean of Exp 1-3, read-out: DPP4 activity in library screen, Mean.

Where “and” joins values, the source holds several entries; their conditions need not be identical. Equal values may be shown once. Read-outs that look alike come from different tables or passages of the source.

Chain of DPP8 (Q6V1X1 whole entry): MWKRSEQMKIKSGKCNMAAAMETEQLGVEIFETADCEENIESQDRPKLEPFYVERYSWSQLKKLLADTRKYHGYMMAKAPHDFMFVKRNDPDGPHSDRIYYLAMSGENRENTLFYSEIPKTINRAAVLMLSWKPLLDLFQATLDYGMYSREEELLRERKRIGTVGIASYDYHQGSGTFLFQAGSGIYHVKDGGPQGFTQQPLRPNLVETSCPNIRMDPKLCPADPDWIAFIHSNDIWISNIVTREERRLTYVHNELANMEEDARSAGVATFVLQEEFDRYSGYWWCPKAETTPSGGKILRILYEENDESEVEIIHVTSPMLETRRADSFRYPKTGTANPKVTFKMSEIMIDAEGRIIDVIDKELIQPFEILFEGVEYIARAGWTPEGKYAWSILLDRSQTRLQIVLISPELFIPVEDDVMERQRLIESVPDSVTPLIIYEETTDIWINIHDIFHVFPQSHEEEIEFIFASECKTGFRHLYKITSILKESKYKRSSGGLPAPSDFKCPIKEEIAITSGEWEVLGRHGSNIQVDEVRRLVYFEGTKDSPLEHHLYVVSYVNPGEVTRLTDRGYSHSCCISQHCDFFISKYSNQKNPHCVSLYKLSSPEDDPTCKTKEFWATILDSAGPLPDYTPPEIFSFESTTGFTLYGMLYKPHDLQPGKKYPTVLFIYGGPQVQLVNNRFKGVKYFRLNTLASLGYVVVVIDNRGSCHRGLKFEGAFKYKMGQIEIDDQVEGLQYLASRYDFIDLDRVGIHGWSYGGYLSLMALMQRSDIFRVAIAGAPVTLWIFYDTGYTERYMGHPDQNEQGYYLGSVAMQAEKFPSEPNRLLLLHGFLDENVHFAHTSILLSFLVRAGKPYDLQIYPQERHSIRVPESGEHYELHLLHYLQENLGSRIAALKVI
T1 sequence (Q86TI2 whole entry): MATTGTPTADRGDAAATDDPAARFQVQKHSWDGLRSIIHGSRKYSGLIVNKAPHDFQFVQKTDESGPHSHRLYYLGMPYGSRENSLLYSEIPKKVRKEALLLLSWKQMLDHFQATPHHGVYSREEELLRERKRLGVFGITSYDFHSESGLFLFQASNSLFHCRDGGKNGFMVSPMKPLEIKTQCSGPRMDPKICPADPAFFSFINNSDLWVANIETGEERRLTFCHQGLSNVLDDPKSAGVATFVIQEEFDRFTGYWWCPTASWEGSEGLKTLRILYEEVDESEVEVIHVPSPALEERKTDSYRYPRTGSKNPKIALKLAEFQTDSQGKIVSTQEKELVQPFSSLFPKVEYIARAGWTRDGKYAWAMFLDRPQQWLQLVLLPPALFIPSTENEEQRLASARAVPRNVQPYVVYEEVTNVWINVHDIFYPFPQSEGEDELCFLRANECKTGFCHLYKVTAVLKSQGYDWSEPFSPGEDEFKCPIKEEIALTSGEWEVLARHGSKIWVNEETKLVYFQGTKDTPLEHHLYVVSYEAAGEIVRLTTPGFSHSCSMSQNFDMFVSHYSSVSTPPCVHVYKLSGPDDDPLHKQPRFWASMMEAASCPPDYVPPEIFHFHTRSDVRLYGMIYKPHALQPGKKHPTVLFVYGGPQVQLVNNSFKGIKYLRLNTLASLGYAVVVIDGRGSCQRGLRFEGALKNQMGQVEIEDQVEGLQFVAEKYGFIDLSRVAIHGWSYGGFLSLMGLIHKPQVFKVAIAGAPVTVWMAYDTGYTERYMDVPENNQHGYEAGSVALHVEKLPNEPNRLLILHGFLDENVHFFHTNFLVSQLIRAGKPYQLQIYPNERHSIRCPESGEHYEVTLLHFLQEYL
Chain of DPP4 (P27487 whole entry): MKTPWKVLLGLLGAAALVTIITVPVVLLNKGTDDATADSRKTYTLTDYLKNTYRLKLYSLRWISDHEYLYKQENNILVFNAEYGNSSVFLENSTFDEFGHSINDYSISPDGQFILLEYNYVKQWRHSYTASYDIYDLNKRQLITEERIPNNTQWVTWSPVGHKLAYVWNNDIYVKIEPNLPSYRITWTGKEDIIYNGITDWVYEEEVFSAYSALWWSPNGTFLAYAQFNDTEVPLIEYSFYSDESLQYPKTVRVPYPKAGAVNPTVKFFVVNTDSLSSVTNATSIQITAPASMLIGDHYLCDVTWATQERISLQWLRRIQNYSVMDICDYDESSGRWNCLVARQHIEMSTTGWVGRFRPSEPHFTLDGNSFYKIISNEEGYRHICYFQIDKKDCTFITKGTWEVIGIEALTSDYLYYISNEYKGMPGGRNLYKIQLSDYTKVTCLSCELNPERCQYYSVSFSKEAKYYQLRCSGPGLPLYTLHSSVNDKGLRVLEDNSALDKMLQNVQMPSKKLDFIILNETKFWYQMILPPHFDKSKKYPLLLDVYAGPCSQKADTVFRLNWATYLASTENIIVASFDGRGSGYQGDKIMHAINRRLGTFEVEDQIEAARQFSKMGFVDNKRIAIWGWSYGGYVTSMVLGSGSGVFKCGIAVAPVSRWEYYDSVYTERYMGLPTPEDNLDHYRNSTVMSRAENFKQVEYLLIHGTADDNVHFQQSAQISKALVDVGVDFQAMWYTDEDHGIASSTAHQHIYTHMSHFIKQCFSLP

Take `O=C1c2cccc(O)c2C(=O)c2c(O)cc(CO)cc21` [Aloe-emodin]: in test [1], the “DPP8 assay, Emission (450 nm)” value was 28333 and 31255 and 28705 and 40933 and 31387; the DPP8 activity was 59.6 % of Ctrl and 101.9 % of Ctrl and 112.4 % of Ctrl and 103.3 % of Ctrl and 77.7 % of Ctrl. In test [2], the “DPP9 assay, Emission (450 nm)” value was 45255 and 48696 and 44751; the DPP9 activity is 92.9 % of Ctrl and 100.0 % of Ctrl and 91.9 % of Ctrl. Besides, in test [3], affinity was put at a Ki of 2.37 ± 0.62 µM and the IC50 was 16 ± 4.24 µM.
With `Cc1cc(O)c2c(c1)C(=O)c1cccc(O)c1C2=O` [Chrysophanol], the “DPP8 assay, Emission (450 nm)” value in test [1] is 27057 and 31330 and 23865 and 45793 and 40995. Besides, the DPP8 activity in test [1] was 77.8 % of Ctrl and 97.3 % of Ctrl and 112.7 % of Ctrl and 85.8 % of Ctrl and 86.9 % of Ctrl. Further, the “DPP9 assay, Emission (450 nm)” value in test [2] is 43157 and 48875 and 45154. In addition, the DPP9 activity in test [2] is 88.6 % of Ctrl and 100.3 % of Ctrl and 92.7 % of Ctrl. The remaining activity at 10 µM in test [3] (setting [4]) stood at 64.4%; in test [3] (setting [5]), 60%; in test [3] (setting [6]), 75%; in test [3] (setting [7]), 66.5%. For the same molecule, in test [3], the half-maximal inhibitory concentration (IC50) is > 100 µM.
As for `O=C(O)c1cc(O)c2c(c1)C(=O)c1cccc(O)c1C2=O` [Rhein], in test [1], the IC50 is > 100 µM; the DPP8 activity is 54.9 % of Ctrl and 47.9 % of Ctrl and 41.4 % of Ctrl and 44.7 % of Ctrl and 72.6 % of Ctrl. The “activity against DPP8” value in test [1] (tested at 100 µM) is on record as “very weak activity”. In addition, in test [2], the “DPP9 assay, Emission (450 nm)” value is 41706 and 44766 and 43536; the DPP9 activity is 85.6 % of Ctrl and 91.9 % of Ctrl and 89.4 % of Ctrl. In addition, in test [3], the inhibition constant (Ki) turned out to be 3.42 ± 0.53 µM and the half-maximal inhibitory concentration (IC50) came to 23.1 ± 3.57 µM.
In the case of `COc1cc(O)c2c(c1)C(=O)c1cc(C)cc(O)c1C2=O` [Rheochrysidin], the DPP8 activity in test [1] is 78.2 % of Ctrl and 100.6 % of Ctrl and 89.5 % of Ctrl and 95.0 % of Ctrl and 106.4 % of Ctrl. Also, the “DPP9 assay, Emission (450 nm)” value in test [2] was 49845 and 45873 and 51642. The DPP9 activity in test [2] was 102.3 % of Ctrl and 94.2 % of Ctrl and 106.0 % of Ctrl. For the same molecule, the remaining activity at 10 µM in test [3] (setting [4]) stood at 44.7%; in test [3] (setting [5]) it was 52.2%; in test [3] (setting [6]), 53.9%; in test [3] (setting [7]), 50.3%.
